Results: article PMC10574094, “Discovery of a SHP2 Degrader with In Vivo Anti-Tumor Activity” (Molecules, 2023)
Residues, ends and D or L forms follow the SMILES beside them. *: point of attachment. Cbz = O=C(OCc1ccccc1)*

What was measured:
SHP2 = molecular target: T1, SHP2 (Homo sapiens, UniProt Q06124); assay: SHP2 degradation by Western blotting in HEK293 cells; format: cell-based; design: endogenous in cells; host or cells: HEK293; settings: for effect on P9-induced SHP2 degradation: HEK293, 16 h, 250 nM P9 in combination with 1 µM 3, 10 µM MG132, 1 µM MLN4924, 40 µM VHL-2 or 40 µM Lenalidomide; for SHP2 degradation (in words) / Degradation at 1 μM / Degradation at 10 μM: HEK293 cells; for SHP2 degradation (in words): 1 and 10 µM; for Degradation at 1 μM / Degradation at 10 μM: 16 h treatment
T1 sequence (Q06124 1-593): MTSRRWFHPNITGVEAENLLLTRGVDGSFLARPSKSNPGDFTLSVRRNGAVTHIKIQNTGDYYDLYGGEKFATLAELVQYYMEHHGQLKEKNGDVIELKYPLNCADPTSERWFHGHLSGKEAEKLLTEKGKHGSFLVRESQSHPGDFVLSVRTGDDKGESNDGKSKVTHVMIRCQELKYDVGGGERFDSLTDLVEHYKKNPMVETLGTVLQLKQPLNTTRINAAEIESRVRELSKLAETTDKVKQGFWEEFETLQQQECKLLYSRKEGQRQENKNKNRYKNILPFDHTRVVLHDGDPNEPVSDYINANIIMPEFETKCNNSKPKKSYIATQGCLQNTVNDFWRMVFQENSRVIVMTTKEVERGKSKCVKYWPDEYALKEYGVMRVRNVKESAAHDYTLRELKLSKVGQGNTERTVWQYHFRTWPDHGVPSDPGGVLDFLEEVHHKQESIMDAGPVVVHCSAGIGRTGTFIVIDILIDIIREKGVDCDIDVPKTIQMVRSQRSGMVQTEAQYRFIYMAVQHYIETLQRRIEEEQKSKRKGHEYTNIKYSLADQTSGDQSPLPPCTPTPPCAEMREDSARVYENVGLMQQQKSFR
Protocol: HEK293, SKBR3, U2OS, MCF7 and A549 cells were grown in DMEM supplemented with 10% FBS, penicillin (50 units/mL), and streptomycin (50 μg/mL) in a 37 °C incubator containing 5% CO2. […] For western-blot analysis, protein samples were separated by SDS-PAGE, transferred to nitrocellulose membranes, and incubated overnight at 4 °C with corresponding primary antibodies diluted in 5% BSA in phosphate-buffered saline Tween (PBST). SuperSignal™ West Pico PLUS (PI34580; Thermo Scientific) was used to visualize the antibodies in the bioanalytical imaging system (Azure Biosystems c500). […] Anti-PTP1B (ab244207) antibody was purchased from Abcam. For colony formation assay, a total of approximately 200–500 cells were seeded to each well in a 12-well plate.
Supplemental Figures, Schemes, and Tables:
Figure S1. Western blots of degradation assay for PROTAC screening. (A) Degradation assay of
compo un ds i n Table 1 at 1 μM fo r 16 hours in H EK29 3 cells. (B) Degradation assay of compounds in Table
1 at 10 μM for 16 hours in HEK293 cells. (C) Degradation assay of compounds in Table 2 at 1 μM for 16

full-length SHP2 (1-528) = molecular target: T2, full-length SHP2 (1-528) (Homo sapiens, UniProt Q06124); assay: SHP2 allosteric inhibition assay (DiFMUP substrate); format: biochemical; settings: full length SHP2, enzymatic assay
T2 construct: The SHP2 protein (Aa 1–528) was cloned into a pET-21a(+) vector; His; made in house; host or cells: E. coli BL21(DE3)
T2 sequence (Q06124 1-528): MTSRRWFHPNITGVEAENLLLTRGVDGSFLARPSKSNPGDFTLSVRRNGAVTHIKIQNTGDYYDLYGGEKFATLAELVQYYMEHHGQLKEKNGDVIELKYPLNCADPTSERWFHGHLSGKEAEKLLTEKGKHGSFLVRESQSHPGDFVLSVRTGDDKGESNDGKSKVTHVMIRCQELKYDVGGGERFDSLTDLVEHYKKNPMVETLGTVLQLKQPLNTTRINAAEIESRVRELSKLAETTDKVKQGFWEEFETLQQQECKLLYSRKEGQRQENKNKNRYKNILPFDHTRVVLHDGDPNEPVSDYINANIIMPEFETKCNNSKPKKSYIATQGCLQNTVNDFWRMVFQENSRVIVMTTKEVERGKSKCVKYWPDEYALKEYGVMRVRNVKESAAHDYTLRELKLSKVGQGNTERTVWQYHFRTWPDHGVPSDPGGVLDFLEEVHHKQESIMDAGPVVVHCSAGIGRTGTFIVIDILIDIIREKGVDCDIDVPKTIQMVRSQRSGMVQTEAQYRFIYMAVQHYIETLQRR
Protocol: The SHP2 protein (Aa 1–528) was cloned into a pET-21a(+) vector. Bacterial BL21(DE3) (Novagen) was used as an expression host, and the induction of protein expression was carried out in LB media with 1 mM IPTG at 18 °C overnight. Cell pellets were stored at −80 °C for subsequent protein purification. Protein purification was conducted at 4 °C. Frozen cell pellets were lysed by sonication in 40 mL cold lysis buffer (50 mM Tris-HCl, pH 8.0, 150 mM NaCl, 5 mM imidazole, and 1 mM PMSF) per liter cell pellet. Cell lysates were clarified by centrifuging for 15 min at 6000 rpm. The supernatant was incubated with HisPur Ni-NTA resin (Thermo Scientific, Waltham, MA, USA) for 2 h, and then packed onto a column and washed with 50 resin volume of buffer A (50 mM Tris-HCl, pH 8.0, 500 mM NaCl, 5 mM imidazole). The HIS-tagged proteins were eluted with Buffer B (50 mM Tris-HCl, pH = 8.0, 500 mM NaCl, 300 mM imidazole,). Pooled HIS-protein-containing fractions were concentrated, loaded onto a HiLoad 26/600 Superdex 75 column (GE Healthcare Biosciences, Piscataway, NJ, USA), and eluted with storage buffer (50 mM Tris-HCl, pH 8.0, 150 mM NaCl, 1 mM DTT, 10% glycerol). Proteins used for inhibition assays were purified using Ni-NTA resin (Qiagen, Hilden, Germany) followed by size exclusion column chromatography (ÄKTA pure, Cytiva, Marlborough, MA, USA) and the purity was determined to be >95% by SDS-PAGE and Coomassie staining. The protein was aliquoted and stored at −80 °C.
The catalytic activity of SHP2 (1-528) was assayed with 6,8-Difluoro-4-Methylumbelliferyl Phosphate (DiFMUP, Invitrogen, cat# D6567) as a substrate in 3,3-Dimethylglutaric acid (DMG) buffer (50 mM DMG, pH 7.0, 1 mM EDTA, 18 mM NaCl, 0.01% Triton X-100) at 25 °C. To determine the IC50 values, the assays were performed in 96-well plates (Corning Costar 3915). Series diluted compounds were incubated with 0.5 nM of SHP2 and 0.5 μM of peptide IRS1_pY1172(dPEG8)pY1222 (sequence H2N-LN(pY)IDLDLV(dPEG8)LST(pY)ASINFQK-amide). After 30 min incubation at room temperature, the substrate DiFMUP was added to the reaction (200 μM final concentration, total reaction volume is […]) and incubated at 25 °C for 10 min. The reaction was then quenched by adding 40 μL of 160 μM bpV(Phen) (Sigma–Aldrich, cat# SML0889) solution. The fluorescence signal was monitored with a CLARIOstar Plus Microplate Spectrophotometer (BMG Labtech) using excitation and emission wavelengths of 340 and 450 nm, respectively. The inhibitordose-response curves were analyzed using normalized IC50 regression curve fitting with control-based normalization. Data were fitted using Prism GraphPad 9.2.0.

With `Nc1cccc2c1CN(C1CCC(=O)NC1=O)C2=O` (centres unmarked) [lenalidomide, reference compound] the “effect on P9-induced SHP2 degradation” value (SHP2) was “did not affect the SHP2 degradation induced by P9”.

For `Cc1ncsc1-c1ccc([C@H](C)NC(=O)[C@@H]2C[C@@H](O)CN2C(=O)[C@@H](NC(=O)CCOCCOCCOCCOCCOCCNC(=O)CCCCCC2(CN)CCN(c3cnc(Sc4cccc(Cl)c4Cl)c(N)n3)CC2)C(C)(C)C)cc1` [P5, (2S,4R)-1-((S)-28-(1-(6-amino-5-((2,3-dichlorophenyl)thio)pyrazin-2-yl)-4-(aminomethyl)piperidin-4-yl)-2-(tert-butyl)-4,23-dioxo-7,10,13,16,19-pentaoxa-3,22-diazaoctacosanoyl)-4-hydroxy-N-((S)-1-(4-(4-methylthiazol-5-yl)phenyl)ethyl)pyrrolidine-2-carboxamide], the “SHP2 degradation (in words)” value (SHP2) was “did not induce significant degradation of SHP2”, the “Degradation at 1 μM” value (SHP2) was under 10% and the “Degradation at 10 μM” value (SHP2) was under 10%. The IC50 (full-length SHP2 (1-528)) was 166 ± 11.9 nM.

In the case of `Cc1ncsc1-c1ccc([C@H](C)NC(=O)[C@@H]2C[C@@H](O)CN2C(=O)[C@@H](NC(=O)CCCCCCCCCCNC(=O)CCCCCC2(CN)CCN(c3cnc(Sc4cccc(Cl)c4Cl)c(N)n3)CC2)C(C)(C)C)cc1` [SC10, (2S,4R)-1-((S)-2-(11-(6-(1-(6-amino-5-((2,3-dichlorophenyl)thio)pyrazin-2-yl)-4-(aminomethyl)piperidin-4-yl)hexanamido)undecanamido)-3,3-dimethylbutanoyl)-4-hydroxy-N-((S)-1-(4-(4-methylthiazol-5-yl)phenyl)ethyl)pyrrolidine-2-carboxamide], the “Degradation at 1 μM” value (SHP2) is reported as 36% and the IC50 (full-length SHP2 (1-528)) is reported as 122 ± 19.1 nM.

With `Cc1ncsc1-c1ccc([C@H](C)NC(=O)[C@@H]2C[C@@H](O)CN2C(=O)[C@@H](NC(=O)CCCCCCCNC(=O)CCCCCC2(CN)CCN(c3cnc(Sc4cccc(Cl)c4Cl)c(N)n3)CC2)C(C)(C)C)cc1` [SC7, (2S,4R)-1-((S)-2-(8-(6-(1-(6-amino-5-((2,3-dichlorophenyl)thio)pyrazin-2-yl)-4-(aminomethyl)piperidin-4-yl)hexanamido)octanamido)-3,3-dimethylbutanoyl)-4-hydroxy-N-((S)-1-(4-(4-methylthiazol-5-yl)phenyl)ethyl)pyrrolidine-2-carboxamide] the “SHP2 degradation (in words)” value (SHP2) was “negligible to modest degradation”, the “Degradation at 1 μM” value (SHP2) was under 10% and the “Degradation at 10 μM” value (SHP2) was 15%. The IC50 (full-length SHP2 (1-528)) was 124 ± 21.6 nM.

`Cc1ncsc1-c1ccc([C@H](C)NC(=O)[C@@H]2C[C@@H](O)CN2C(=O)[C@@H](NC(=O)CCCCCCCCN2CCN(C(=O)CCCCCC3(CN)CCN(c4cnc(Sc5cccc(Cl)c5Cl)c(N)n4)CC3)CC2)C(C)(C)C)cc1` [P8, (2S,4R)-1-((S)-2-(9-(4-(6-(1-(6-amino-5-((2,3-dichlorophenyl)thio)pyrazin-2-yl)-4-(aminomethyl)piperidin-4-yl)hexanoyl)piperazin-1-yl)nonanamido)-3,3-dimethylbutanoyl)-4-hydroxy-N-((S)-1-(4-(4-methylthiazol-5-yl)phenyl)ethyl)pyrrolidine-2-carboxamide] showed an IC50 (full-length SHP2 (1-528)) of 104 ± 9.3 nM.

`Cc1ncsc1-c1ccc([C@H](C)NC(=O)[C@@H]2C[C@@H](O)CN2C(=O)[C@@H](NC(=O)CCCCCCCCCCN2CCN(C(=O)CCCCCC3(CN)CCN(c4cnc(Sc5cccc(Cl)c5Cl)c(N)n4)CC3)CC2)C(C)(C)C)cc1` [P10, (2S,4R)-1-((S)-2-(11-(4-(6-(1-(6-amino-5-((2,3-dichlorophenyl)thio)pyrazin-2-yl)-4-(aminomethyl)piperidin-4-yl)hexanoyl)piperazin-1-yl)undecanamido)-3,3-dimethylbutanoyl)-4-hydroxy-N-((S)-1-(4-(4-methylthiazol-5-yl)phenyl)ethyl)pyrrolidine-2-carboxamide] showed an IC50 (full-length SHP2 (1-528)) of 111 ± 8.2 nM.

With `NS(=O)(=O)OC[C@@H]1C[C@@H](n2ccc3c(N[C@H]4CCc5ccccc54)ncnc32)C[C@@H]1O` [MLN-4924, reference compound] the “effect on P9-induced SHP2 degradation” value (SHP2) was “markedly reduced the extent of SHP2 degradation”.

In the case of `CC(C)C[C@@H](C=O)NC(=O)[C@H](CC(C)C)NC(=O)[C@H](CC(C)C)NC(=O)OCc1ccccc1` [MG-132, reference compound] (Cbz-Leu-Leu-Leu-aldehyde), the “effect on P9-induced SHP2 degradation” value (SHP2) is reported as “markedly reduced the extent of SHP2 degradation”.

`Cc1ncsc1-c1ccc([C@H](C)NC(=O)[C@@H]2C[C@@H](O)CN2C(=O)[C@@H](NC(=O)CCCCCCCN2CCN(C(=O)CCCCCC3(CN)CCN(c4cnc(Sc5cccc(Cl)c5Cl)c(N)n4)CC3)CC2)C(C)(C)C)cc1` [P7, (2S,4R)-1-((S)-2-(8-(4-(6-(1-(6-amino-5-((2,3-dichlorophenyl)thio)pyrazin-2-yl)-4-(aminomethyl)piperidin-4-yl)hexanoyl)piperazin-1-yl)octanamido)-3,3-dimethylbutanoyl)-4-hydroxy-N-((S)-1-(4-(4-methylthiazol-5-yl)phenyl)ethyl)pyrrolidine-2-carboxamide] showed an IC50 (full-length SHP2 (1-528)) of 119 ± 25.4 nM.

In the case of `NCC1(CCCCCC(=O)O)CCN(c2cnc(Sc3cccc(Cl)c3Cl)c(N)n2)CC1` [compound 4], the IC50 (full-length SHP2 (1-528)) is reported as 90 nM.
